From PMC8230802, “The Effects of Food on Cannabidiol Bioaccessibility” (Molecules, 2021)
Several values for one entry are separate records, joined by “and”; a condition that tells them apart may be missing. Equal values may be shown once. Read-outs that look alike come from different tables or passages of the source.

Columns and labels:
[1] = Fasted state three-phase in vitro digestion of CBD; assay type: in vitro ADME; settings: for Micellarization efficiency: CBD in AQ / DG x 100; for Digestive stability: CBD in DG / raw material x 100
Method: The three-step in vitro digestion employed to mimic the human digestive tract in this study consisted of an oral phase, a gastric phase, and an intestinal phase. The method used was modified slightly from a previously described protocol. For the fasted state digestion oral phase, 10 mg and 100 mg of CBD were added to 1 mL distilled water in a 50 mL pyrex glass centrifuge tube (DAIGGER Scientific, Hamilton, NJ, USA) and mixed with 1 mL oral fluid. The mixtures were vortexed for 30 s and immediately the gastric phase of digestion was started by adding pepsin into NaHCO3 and the pH was adjusted to 2.5. The mixtures were blanketed with nitrogen gas, wrapped in parafilm, and shaken in a 37 °C incubator for 1 h in the dark at 95 rpm. Meanwhile, the intestinal phase was prepared (Table S1) by mixing bile in NaHCO3 and sonicating it for 45 min. For the intestinal phase, the pancreatin-lipase (2 mL of 2:1 ratio) was mixed into the same solution as bile salt. The enzyme solution and the bile solution were added to the tube containing the gastric phase and the pH was adjusted to 6.5 using 1N NaOH. The digestion sample tubes were blanketed with nitrogen and shaken for another 2 h at 37 °C in the dark at 95 rpm. After completion of the intestinal phase, 4 mL of the resulting Digesta (DG) was transferred into conical tubes, diluted with acetonitrile DG: Acetonitrile 1:2 (v/v), blanketed with nitrogen, and kept at −80 °C for analysis by UPLC-MS. The remaining volumes of the DG samples were centrifuged at 10,000× g at 4 °C for 60 min (Beckman L7-65 Ultracentrifuge, Beckman Instruments, Palo Alto, CA, USA). After centrifugation, the aqueous supernatant (AQ) containing the micellar fractions were filtered through the 0.22 µm pore (VWR, USA), diluted with acetonitrile AQ: Acetonitrile 1:2 (v/v) and stored at −80 °C for further analysis. The insoluble pellet was dissolved into the acetonitrile 1:2 (v/v) for further analysis.
(§1) Diluted AQ and DG fractions were filtered using the 0.2 µm nylon filters for DG fraction and injected for analysis by ultra-performance liquid chromatography-mass spectrometry (UPLC-MS) to obtain CBD concentration values. Percent (%) recovery values were calculated for CBD using the following equation:(1) % Recovery=Concentration in AQ/Concentration in DG×100
(§2) CBD was quantified in pellet (P), digesta (DG) and aqueous (AQ) fractions by liquid chromatography—mass spectrometry. Digestive stability, the percentage recovery of CBD in DG fraction was calculated by dividing the moles of CBD quantified in DG by the moles of CBD quantified in raw material (RM) multiplied by 100. The micellarization efficiency is the percentage of CBD recovered in the AQ phase of digestion and was calculated by dividing the moles of CBD in AQ by the moles of CBD in DG multiplied by 100.

[2] = Fed state three-phase in vitro digestion of CBD (olive oil and baby food); assay type: in vitro ADME; settings: for Digestive stability: CBD in DG / raw material x 100
Method: For the fed in vitro digestion experiment, CBD was mixed with foods and oil. Briefly, 10 mg and 100 mg CBD were each first mixed with 0.5 g olive oil, and then added to 2 g baby food (Turkey and Gravy, Gerber, IL, USA). The oral phase samples were vortexed for 30 s followed by the gastric and intestinal phase protocols mentioned above. After the completion of the three-phase in vitro digestion procedure, 15 mL of the DG sample was collected, blanketed with nitrogen and kept at −80 °C for further analysis. The rest of the DG sample was centrifuged at 10,000× g for 1 h at 4 °C and the AQ fraction was collected, filtered, diluted in acetonitrile 1:2 (v/v) and blanketed with nitrogen and kept at −80 °C for the UPLC-MS analysis.
as §1, §2

[3] = MS/MS survey of metabolites in digestion phases; assay type: in vitro ADME; settings: DG, AQ and P phases, negative ion mode
Method: To further confirm the presence of any metabolites in the DG, AQ, and P phases, an MS/MS survey was performed on negative ion mode with the inclusion list of all the masses for the expected metabolites (Table S2). The setting for TOF MSMS function was as follows: centroid data format, negative mode and polarity, mass rages from 100 to 1000, time 0 min to 25.0 min and scan time 2.1 s with inter scan time of 0.1 s. The instrument parameters were as follows: capillary 3000.0 V, sample cone 35.0 V, source temperature 100 °C and collision energy 5.0.

[4] = set-up: method as in PMID 6262948; settings: Rhesus monkeys, on average; cited from earlier work
[5] = set-up: method as in PMID 27648135; settings: rats; cited from earlier work
[6] = with sesame oil; cited from earlier work
lipase = assay: Lipase activity assay with pNPP substrate; assay type: biochemical
Method: The lipase, pancreatin and bile were purchased from Sigma-Aldrich. The p-nitrophenyl palmitate (pNPP), a […] compound (N2752, Sigma-Aldrich), was used as a substrate for the lipase enzyme as previously described. Upon hydrolysis of palmitate from pNPP, the resulting product is 4-nitrophenol (4-NP), and can be measured spectrophotometrically at 410 nm.
Final assay enzyme concentrations were 1:2 mg/mL lipase:pancreatin and 1:2:3 mg/mL lipase: pancreatin:bile using 96 well plates separately just as in the artificial digestion protocol. Controls consisted of phosphate buffer and lipase enzyme without substrate pNPP. Experimental wells contained substrate pNPP in phosphate buffer and the lipase enzyme. All experimental and control wells were performed in triplicate. Temperature was set at 37 °C and the spectrophotometer was set to collect kinetic data over 2 h for the lipase: pancreatin (1:2) experiment. Substrate concentrations were 0.1 mM and 1.0 mM and were made from the 10.0 mM stock solution of pNPP in isopropanol. 4-NP dilutions in phosphate buffer were used to make a standard curve ranging from 5–1000 µM.
On a separate 96 well plate, the same procedure was followed for the lipase: pancreatin: bile salt (1:2:3) experiment. Control and experimental samples were the same as mentioned above for the 1:2 mg/mL lipase: pancreatin experiment. […] After an incubation period of 30 min at 37 °C, 25 µL of the reaction mixture (supernatant) was taken and immediately mixed with 1 mL of 0.1 N NaOH in a 1 mL cuvette to stop the reaction and dilute the sample. The liberated pNP was detected at 410 nm, and bile salt interference was corrected by using a blank without substrate for background subtraction. The reaction rates for this experiment were obtained from the slope of the absorbance versus the time curve by using an extinction coefficient for the p-nitrophenol (pNP) that was determined from the absorbance of pNP as a standard solution.

Structure (SMILES): C=C(C)[C@@H]1CCC(C)=C[C@H]1c1c(O)cc(CCCCC)cc1O [CBD, Cannabidiol]
- Micellarization efficiency ([1]; 10 mg CBD): 0.65 ± 0.7%
- Digestive stability ([1]; 10 mg CBD): 72.99 ± 6%
- recovery at 3 h, 10 mg CBD per digestion (in 1 mL water + 1 mL oral fluid) ([1]; 10 mg CBD, read-out: % recovery in aqueous (AQ) micellar fraction): 0.69 ± 1.5%
- recovery at 3 h, 10 mg CBD per digestion (in 1 mL water + 1 mL oral fluid) ([1]; 10 mg CBD, read-out: % recovery in digesta (DG)): 73 ± 6%
- recovery at 3 h, 10 mg CBD per digestion (in 1 mL water + 1 mL oral fluid) ([1]; 10 mg CBD, read-out: % recovery in pellet (P)): 92.2 ± 10%
- Micellarization efficiency ([1]; 100 mg CBD): 0.14 ± 0.1%
- Digestive stability ([1]; 100 mg CBD): 95.67 ± 2%
- recovery at 3 h, 100 mg CBD per digestion (in 1 mL water + 1 mL oral fluid) ([1]; 100 mg CBD, read-out: % recovery in aqueous (AQ) micellar fraction): 0.15 ± 1%
- recovery at 3 h, 100 mg CBD per digestion (in 1 mL water + 1 mL oral fluid) ([1]; 100 mg CBD, read-out: % recovery in digesta (DG)): 95.7 ± 2%
- recovery at 3 h, 100 mg CBD per digestion (in 1 mL water + 1 mL oral fluid) ([1]; 100 mg CBD, read-out: % recovery in pellet (P)): 74.1 ± 1.3%
- Increase in CBD recovery in the micellar fraction, fed vs fasted state digestion ([2]; fed digestion compared to fasted state digestion): 22 fold
- Micellarization efficiency ([2]; fed state digestion, 10 mg CBD, CBD in AQ / DG x 100): 14.15 ± 0.6%
- Digestive stability ([2]; fed state digestion, 10 mg CBD): 91.39 ± 25%
- recovery at 3 h, 10 mg CBD per digestion (in 0.5 g olive oil + 2 g baby food) ([2]; fed state digestion, 10 mg CBD, read-out: % recovery in aqueous (AQ) micellar fraction): 12.9 ± 7%
- recovery at 3 h, 10 mg CBD per digestion (in 0.5 g olive oil + 2 g baby food) ([2]; fed state digestion, 10 mg CBD, read-out: % recovery in digesta (DG)): 91.4 ± 25%
- recovery at 3 h, 10 mg CBD per digestion (in 0.5 g olive oil + 2 g baby food) ([2]; fed state digestion, 10 mg CBD, read-out: % recovery in pellet (P)): 90.2 ± 18%
- Digestive stability ([2]; fed state digestion, 100 mg CBD): 83.1 ± 25%
- recovery at 3 h, 100 mg CBD per digestion (in 0.5 g olive oil + 2 g baby food) ([2]; fed state digestion, 100 mg CBD, read-out: % recovery in aqueous (AQ) micellar fraction): 18.6 ± 10%
- recovery at 3 h, 100 mg CBD per digestion (in 0.5 g olive oil + 2 g baby food) ([2]; fed state digestion, 100 mg CBD, read-out: % recovery in digesta (DG)): 83.1 ± 25%
- recovery at 3 h, 100 mg CBD per digestion (in 0.5 g olive oil + 2 g baby food) ([2]; fed state digestion, 100 mg CBD, read-out: % recovery in pellet (P)): 87.9 ± 29%
- Metabolites of CBD in digestion phases (MS/MS survey) [3]: No metabolites of CBD were observed
- Oral bioavailability [4]: 16%
- Increase in bioavailability by co-administration of lipids [5]: 2.5 fold
- Recovery / bioavailable in the micellar fraction [6]: 30%

Structure (SMILES): CCCCCc1cc(O)c2c(c1)OC(C)(C)[C@@H]1CCC(C)=C[C@@H]21 [THC, Δ9-tetrahydrocannabinol]
- Increase in bioavailability by co-administration of lipids [5]: 3 fold
- Recovery / bioavailable in the micellar fraction [6]: 30%

Structure (SMILES): CCCCCCCCCCCCCCCC(=O)Oc1ccc([N+](=O)[O-])cc1 [pNPP, p-nitrophenyl palmitate]
- % mole conversion of pNPP to NP (lipase; 0.1 mM pNPP, 1:2:3 lipase:pancreatin:bile): 95.5 ± 7.6%
- % mole conversion of pNPP to NP (lipase; 0.1 mM pNPP, 1:2 lipase:pancreatin): 93.6 ± 0.3%
- % mole conversion of pNPP to NP (lipase; 1 mM pNPP, 1:2:3 lipase:pancreatin:bile): 58.6% and 58.6 ± 5.7%
- % mole conversion of pNPP to NP (lipase; 1 mM pNPP, 1:2 lipase:pancreatin): 20.6% and 20.6 ± 0.07%
